# Test results reported in patent publication US20210369853A1, “TARGETED PROTEASE DEGRADATION PLATFORM” (EUBULUS BIOTHERAPEUTICS INC., priority 2018, published 2021).
# System: Human Monocytic Leukemia MV4-11
# Experiment: Cell proliferation experiment (Alarm blue, 72 h, EC50)
# Type: cell-based
# Conditions: Homo sapiens, MV4-11, MV4;11 cells
# Description: (2.1) Cell Proliferation Experiment:
# Reagents: RPMI-1640 medium, McCoy's 5A medium, IMDM medium, MEM medium, L-15 medium, fetal bovine serum, Penicillin-Streptomycin double antibody, trypsin, etc., 2-mercaptoethanol, NEAA, pyruvate, etc.
# The cells were cultured in conventional ways, and the cells should be passed at least for at least 2 generations before plating. Cells at the logarithmic growth phase are collected, prepared into single cell suspensions and counted. The concentration of cells was adjusted to the desired concentration, and cells were inoculated into a 96-well cell culture plate at 100 μl per well. 100 μL of complete medium of the test compound were added to each well, set up 2 duplicates for each concentration, and diluted with a 5-fold gradient, and continue to culture for 72 h. All cells were subjected to EC50 test for corresponding samples.
# The fluorescence intensity of each well was detected using the Alarm blue method, and EC50 was calculated.
# EC50 was calculated according to the following formula:
# Y=Max+(Min−Max)/[1+(X/EC50)×Slope]
# wherein Min, Max and Slope represent the minimum, maximum and slope respectively.
row,Structure (SMILES),EC50 [nM]
1,CC[C@@H]1C(=O)N(C)c2cnc(Nc3ccc(C(=O)NCCOCCOCCOCCNCCCCCC(=O)Nc4cccc5c4CN(C4CCC(=O)NC4=O)C5=O)cc3OC)nc2N1C1CCCC1 (stereo partly shown) [UB-180649],10 to 100
2,CC[C@@H]1C(=O)N(C)c2cnc(Nc3ccc(C(=O)NCCOCCNCCCCCCCC(=O)Nc4cccc5c4CN(C4CCC(=O)NC4=O)C5=O)cc3OC)nc2N1Cc1ccc(Br)cc1 (stereo partly shown) [UB-180652],10 to 100
3,CC[C@@H]1C(=O)N(C)c2cnc(Nc3ccc(C(=O)NCCOCCNCCCCCCC(=O)Nc4cccc5c4CN(C4CCC(=O)NC4=O)C5=O)cc3OC)nc2N1Cc1ccc(Br)cc1 (stereo partly shown) [UB-180653],100 to 1000
4,Cc1sc2c(c1C)C(c1ccc(Cl)cc1)=N[C@@H](CC(=O)NCCOCCNCCCC(=O)Nc1cccc3c1CN(C1CCC(=O)NC1=O)C3=O)c1nnc(C)n1-2 (stereo partly shown) [UB-180656],100 to 1000
5,CC[C@@H]1C(=O)N(C)c2cnc(Nc3ccc(C(=O)NCCOCCNCCCCC(=O)Nc4cccc5c4CN(C4CCC(=O)NC4=O)C5=O)cc3OC)nc2N1C1CCCC1 (stereo partly shown) [UB-180657],10 to 100
6,CC[C@@H]1C(=O)N(C)c2cnc(Nc3ccc(C(=O)NCCOCCNCCCC(=O)Nc4cccc5c4CN(C4CCC(=O)NC4=O)C5=O)cc3OC)nc2N1C1CCCC1 (stereo partly shown) [UB-180662],10 to 100
7,CC[C@@H]1C(=O)N(C)c2cnc(Nc3ccc(C(=O)NCCOCCOCCOCCNCC(=O)Nc4cccc5c4CN(C4CCC(=O)NC4=O)C5=O)cc3OC)nc2N1Cc1ccc(Br)cc1 (stereo partly shown) [UB-180664],10 to 100
8,COc1cc(C(=O)NCCCNCCCCC(=O)Nc2cccc3c2CN(C2CCC(=O)NC2=O)C3=O)ccc1Nc1ncc2c(n1)N(Cc1ccc(Br)cc1)CC(C)(C)C(=O)N2C (stereo not shown) [UB-180670],100 to 1000
9,COc1cc(C(=O)NCCCNCCCCCCCC(=O)Nc2cccc3c2CN(C2CCC(=O)NC2=O)C3=O)ccc1Nc1ncc2c(n1)N(Cc1ccc(Br)cc1)CC(C)(C)C(=O)N2C (stereo not shown) [UB-180671],100 to 1000
10,COc1cc(C(=O)NCCOCCNCCCCCCC(=O)Nc2cccc3c2CN(C2CCC(=O)NC2=O)C3=O)ccc1Nc1ncc2c(n1)N(Cc1ccc(Br)cc1)CC(C)(C)C(=O)N2C (stereo not shown) [UB-180672],100 to 1000
11,CC[C@@H]1C(=O)N(C)c2cnc(Nc3ccc(C(=O)NCc4cn(CCNCCCC(=O)Nc5cccc6c5CN(C5CCC(=O)NC5=O)C6=O)nn4)cc3OC)nc2N1Cc1ccc(Br)cc1 (stereo partly shown) [UB-180676],10 to 100
12,COc1cc(C(=O)NCCCNCCCC(=O)Nc2cccc3c2CN(C2CCC(=O)NC2=O)C3=O)ccc1Nc1ncc2c(n1)N(Cc1ccc(Br)cc1)CC(C)(C)C(=O)N2C (stereo not shown) [UB-180677],100 to 1000
13,CC[C@@H]1C(=O)N(C)c2cnc(Nc3ccc(C(=O)NCc4cn(CCNCCC(=O)Nc5cccc6c5CN(C5CCC(=O)NC5=O)C6=O)nn4)cc3OC)nc2N1Cc1ccc(Br)cc1 (stereo partly shown) [UB-180679],10 to 100
14,CC[C@@H]1C(=O)N(C)c2cnc(Nc3ccc(C(=O)NCCNCCC(=O)Nc4cccc5c4CN(C4CCC(=O)NC4=O)C5=O)cc3OC)nc2N1C1CCCC1 (stereo partly shown) [UB-180682],10 to 100
15,CC[C@@H]1C(=O)N(C)c2cnc(Nc3ccc(C(=O)NCCNCCC(=O)Nc4cccc5c4CN(C4CCC(=O)NC4=O)C5=O)cc3OC)nc2N1Cc1ccc(Br)cc1 (stereo partly shown) [UB-180683],> 1000
16,CC[C@@H]1C(=O)N(C)c2cnc(Nc3ccc(C(=O)NC4CCN(CCNCCCCC(=O)Nc5cccc6c5CN(C5CCC(=O)NC5=O)C6=O)CC4)cc3OC)nc2N1C1CCCC1 (stereo partly shown) [UB-180684],10 to 100
17,CC[C@@H]1C(=O)N(C)c2cnc(Nc3ccc(C(=O)NC4CCN(CCNCCCCC(=O)Nc5cccc6c5CN(C5CCC(=O)NC5=O)C6=O)CC4)cc3OC)nc2N1Cc1ccc(Br)cc1 (stereo partly shown) [UB-180685],10 to 100
18,CC[C@@H]1C(=O)N(C)c2cnc(Nc3ccc(C(=O)NC4CCN(CCNCCCC(=O)Nc5cccc6c5CN(C5CCC(=O)NC5=O)C6=O)CC4)cc3OC)nc2N1C1CCCC1 (stereo partly shown) [UB-180687],10 to 100
19,CC[C@@H]1C(=O)N(C)c2cnc(Nc3ccc(C(=O)NC4CCN(CCNCCCC(=O)Nc5cccc6c5CN(C5CCC(=O)NC5=O)C6=O)CC4)cc3OC)nc2N1Cc1ccc(Br)cc1 (stereo partly shown) [UB-180688],10 to 100
20,CC[C@@H]1C(=O)N(C)c2cnc(Nc3ccc(C(=O)NCCNCCCC(=O)Nc4cccc5c4CN(C4CCC(=O)NC4=O)C5=O)cc3OC)nc2N1C1CCCC1 (stereo partly shown) [UB-180689],10 to 100
21,CC[C@@H]1C(=O)N(C)c2cnc(Nc3ccc(C(=O)NCCNCCCC(=O)Nc4cccc5c4CN(C4CCC(=O)NC4=O)C5=O)cc3OC)nc2N1Cc1ccc(Br)cc1 (stereo partly shown) [UB-180690],10 to 100
22,CC[C@@H]1C(=O)N(C)c2cnc(Nc3ccc(C(=O)NCc4cn(CCNCC(=O)Nc5cccc6c5CN(C5CCC(=O)NC5=O)C6=O)nn4)cc3OC)nc2N1Cc1ccc(Br)cc1 (stereo partly shown) [UB-180692],100 to 1000
23,CC[C@@H]1C(=O)N(C)c2cnc(Nc3ccc(C(=O)NC4CCN(CCNCCCCC(=O)Nc5cccc6c5CN(C5CCC(=O)NC5=O)C6=O)C4)cc3OC)nc2N1C1CCCC1 (stereo partly shown) [UB-180693],10 to 100

row,Structure (SMILES),EC50 [nM]
1,CC[C@@H]1C(=O)N(C)c2cnc(Nc3ccc(C(=O)NCCNCC(=O)Nc4cccc5c4CN(C4CCC(=O)NC4=O)C5=O)cc3OC)nc2N1C1CCCC1 (stereo partly shown) [UB-180694],100 to 1000
2,CC[C@@H]1C(=O)N(C)c2cnc(Nc3ccc(C(=O)NCCNCC(=O)Nc4cccc5c4CN(C4CCC(=O)NC4=O)C5=O)cc3OC)nc2N1Cc1ccc(Cl)s1 (stereo partly shown) [UB-180695],10 to 100
3,CC[C@@H]1C(=O)N(C)c2cnc(Nc3ccc(C(=O)NCCOCCNCCC(=O)Nc4cccc5c4CN(C4CCC(=O)NC4=O)C5=O)cc3OC)nc2N1C1CCCC1 (stereo partly shown) [UB-180696],10 to 100
4,COc1cc(C(=O)NCCOCCNCCC(=O)Nc2cccc3c2CN(C2CCC(=O)NC2=O)C3=O)ccc1Nc1ncc2c(n1)N(C(C)C)[C@H](C)C(=O)N2C (stereo partly shown) [UB-180697],100 to 1000
5,CC[C@@H]1C(=O)N(C)c2cnc(Nc3ccc(C(=O)NCCCNCCOCC(=O)Nc4cccc5c4CN(C4CCC(=O)NC4=O)C5=O)cc3OC)nc2N1C1CCCC1 (stereo partly shown) [UB-180698],10 to 100
6,CC[C@@H]1c2c(C#N)ncn2-c2cnc(Nc3ccc(C(=O)NCCOCCOCCOCCNCCC(=O)Nc4cccc5c4CN(C4CCC(=O)NC4=O)C5=O)cc3OC)nc2N1C1CCCC1 (stereo partly shown) [UB-180700],100 to 1000
7,COc1cc(C(=O)NCCOCCOCCOCCNCCC(=O)Nc2cccc3c2CN(C2CCC(=O)NC2=O)C3=O)ccc1Nc1ncc2c(n1)N(C(C)C)[C@H](C)C(=O)N2C (stereo partly shown) [UB-180702],10 to 100
8,CC[C@@H]1C(=O)N(C)c2cnc(Nc3ccc(C(=O)NCCOCCNCC(=O)Nc4cccc5c4CN(C4CCC(=O)NC4=O)C5=O)cc3OC)nc2N1C1CCCC1 (stereo partly shown) [UB-180705],10 to 100
9,CC[C@@H]1CN(C)c2cnc(Nc3ccc(C(=O)NCCOCCNCCC(=O)Nc4cccc5c4CN(C4CCC(=O)NC4=O)C5=O)cc3OC)nc2N1C(C)C (stereo partly shown) [UB-180706],100 to 1000
10,CC[C@@H]1C(=O)N(C)c2cnc(Nc3ccc(C(=O)NCCCNCCN(C)CC(=O)Nc4cccc5c4CN(C4CCC(=O)NC4=O)C5=O)cc3OC)nc2N1C1CCCC1 (stereo partly shown) [UB-180708],10 to 100
11,CC[C@@H]1C(=O)N(C)c2cnc(Nc3ccc(C(=O)NCCOCCOCCOCCN(CCC(=O)Nc4cccc5c4CN(C4CCC(=O)NC4=O)C5=O)C(=O)OCc4ccc(NC(=O)[C@H](CCCNC(N)=O)NC(=O)[C@@H](NC(=O)CCCCCN5C(=O)C=CC5=O)C(C)C)cc4)cc3OC)nc2N1C1CCCC1 (stereo partly shown) [UB-180709],100 to 1000
12,CC[C@@H]1C(=O)N(C)c2cnc(Nc3ccc(C(=O)NCCOCCOCCOCCNCCC(=O)Nc4cccc5c4CN(C4CCC(=O)NC4=O)C5=O)cc3OC)nc2N1C(C)C (stereo partly shown) [UB-180710],10 to 100
13,CC[C@@H]1C(=O)N(C)c2cnc(Nc3ccc(C(=O)NC4CCN(CCNCCOCC(=O)Nc5cccc6c5CN(C5CCC(=O)NC5=O)C6=O)CC4)cc3OC)nc2N1C(C)C (stereo partly shown) [UB-180712],10 to 100
14,CC[C@@H]1C(=O)N(C)c2cnc(Nc3ccc(C(=O)NC4CCN(CCOCCNCC(=O)Nc5cccc6c5CN(C5CCC(=O)NC5=O)C6=O)C4)cc3OC)nc2N1C1CCCC1 (stereo partly shown) [UB-180713],10 to 100
15,CC[C@@H]1C(=O)N(C)c2cnc(Nc3ccc(C(=O)NCc4cn(CCNCCCC(=O)Nc5cccc6c5CN(C5CCC(=O)NC5=O)C6=O)nn4)cc3OC)nc2N1Cc1ccc(Cl)s1 (stereo partly shown) [UB-180715],10 to 100
16,CC[C@@H]1C(=O)N(C)c2cnc(Nc3ccc(C(=O)NCc4cn(CCN(C)CCCC(=O)Nc5cccc6c5CN(C5CCC(=O)NC5=O)C6=O)nn4)cc3OC)nc2N1C1CCCC1 (stereo partly shown) [UB-180716],< 10
17,CC[C@@H]1c2c(C#N)ncn2-c2cnc(Nc3ccc(C(=O)NCc4cn(CCNCCC(=O)Nc5cccc6c5CN(C5CCC(=O)NC5=O)C6=O)nn4)cc3OC)nc2N1C1CCCC1 (stereo partly shown) [UB-180723],100 to 1000
18,O=C1CCC(N2Cc3c(NC(=O)CCNCCn4cc(CNC(=O)c5ccc(Nc6ncc7c(n6)-c6ccc(Cl)cc6C(c6c(F)cccc6F)=NC7)cc5)nn4)cccc3C2=O)C(=O)N1 (stereo not shown) [UB-180726],100 to 1000
19,O=C1CCC(N2Cc3c(NC(=O)CCNCCOCCOCCOCCNC(=O)c4ccc(Nc5ncc6c(n5)-c5ccc(Cl)cc5C(c5c(F)cccc5F)=NC6)cc4)cccc3C2=O)C(=O)N1 (stereo not shown) [UB-180728],100 to 1000
20,O=C1CCC(N2Cc3c(NC(=O)CCNCCn4cc(CNC(=O)[C@]5(Cc6cccc(Nc7nccs7)n6)CC[C@@H](Oc6cccc(Cl)c6F)CC5)nn4)cccc3C2=O)C(=O)N1 (stereo partly shown) [UB-180729],100 to 1000
21,O=C1CCC(N2Cc3c(NC(=O)CCNCCOCCOCCOCCNC(=O)[C@]4(Cc5cccc(Nc6nccs6)n5)CC[C@@H](Oc5cccc(Cl)c5F)CC4)cccc3C2=O)C(=O)N1 (stereo partly shown) [UB-180731],100 to 1000
22,O=C1CCC(N2Cc3c(NC(=O)COCCNCCn4cc(CNC(=O)c5ccc(Nc6ncc7c(n6)-c6ccc(Cl)cc6C(c6c(F)cccc6F)=NC7)cc5)nn4)cccc3C2=O)C(=O)N1 (stereo not shown) [UB-180732],100 to 1000
23,O=C1CCC(N2Cc3c(NC(=O)CNCCOCCN4CCC(NC(=O)c5ccc(Nc6ncc7c(n6)-c6ccc(Cl)cc6C(c6c(F)cccc6F)=NC7)cc5)CC4)cccc3C2=O)C(=O)N1 (stereo not shown) [UB-180735],100 to 1000
